Experimental data: US20120258170A1, “PHARMACEUTICAL CO-CRYSTALS OF QUERCETIN” (Nutracryst Therapeutics Private Limited, priority 2009, published 2012)
Entries after “also recorded” stand apart in the source; their conditions may differ. Structures can show the parent of a compound that is named as a salt. Where two headings read alike, the source gives them in different places.

Key:
[1] = system: AMP-activated protein kinase (AMPK); settings: HepG2 cells; cited from earlier work
[2] = system: db/db mice; test: Chronic effect on plasma insulin levels in db/db mice; format: in vivo; set-up: % Reduction in plasma insulin / % Reduction@ in plasma insulin: concentration or dose not given beside the values; settings: for % Reduction@ in plasma insulin: 21th day, calculated after adjusting for control group change; for 21th day insulin: 21 days 300 mg/kg once daily, 4 hr fasting, predosing; for % Reduction in plasma insulin: basal vs 21th day; for % Reduction in plasma insulin / Basal insulin: Mean ± SEM; for Basal insulin: before treatment
Experimental: (§1) Kits: Plasma glucose, cholesterol and triglyceride were measured using Dade Behring auto analyzer. Plasma insulin values measured using Rat/mouse insulin ELISA kit (Millipore, lot no 16006280). Tail cut method plasma glucose values measured using Contour TS glucometer strips (Lot WK8MD3E32A).
(§2) Compounds and Vehicle: All test-compounds were formulated in tween CMC (10% of 2.5% tween 80+90% of 0.25% CMC) and prepared daily about 1 hr before administration. Animals were dosed for 21 days through oral gavage at dose volume of 10 ml/kg body weight.
(§3) Animals were dosed daily at around 10 AM to 11 AM with corresponding test compounds/vehicle at a volume of 10 ml/kg of body weight. Body weight, water intake and food intake was measured daily. After 14 days treatment plasma profile (PG, TG & TC) was measured in 4 hrs fasted animals. On that day animals were dosed post bleeding after keeping feed at 4 PM. After 21 days treatment plasma profile (PG, TG & TC) was measured in 4 hrs fasted animals. After bleeding, animals were administered with test compounds/vehicle and plasma glucose was measured 3 hrs post dosing with Glucometer. Immediately animals were provided with feed.
(§4) Blood samples from r.o.p bleeding were collected in micro centrifuge tubes containing 5 ul of EDTA Na ([…]). Plasma separated by centrifuging blood samples at 6000 rpm at 40 C for 5 minutes. Plasma glucose, total cholesterol and triglyceride were measured using Dade Bhering auto analyser. Plasma insulin was measured (in duplicate samples), using Millipore mouse/rat insulin ELISA kit.
(§5) The percent reduction in plasma profile parameters were calculated using the formula 1−(tt/tc)/bt/bc)×100; where tt: test day treated group mean value of the parameter; tc: test day control group mean value of the parameter; bc: Basal Control group mean value; bt: Basal treated group mean value.
(§6) Statistics were applied using One-Way ANOVA followed by Dunnett's test using sigma stat software.

[3] = Chronic effect on body weight in db/db mice; format: in vivo; settings: Mean ± SEM; for Final day Body weight: after 21 days 300 mg/kg once daily; for % Increase in body weight: basal to final day
Experimental: as §2, §3, §6

[4] = system: db/db mice; test: Chronic effect on plasma profile (PG, TC, TG), 4 hrs fasted, before dosing, in db/db mice; format: in vivo; settings: for 14th day PG / 14th day TC / 14th day TG: 14 days 300 mg/kg once daily per oral, pre dosing; for 14th day PG / 14th day TC / 14th day TG / 21st day PG / 21st day TC / 21st day TG: 4 hr fasting; for % Red PG, 14th day / % Red TC, 14th day / % Red TG, 14th day: 14 days 300 mg/kg once daily; for % Red PG, 14th day / % Red TC, 14th day / % Red TG, 14th day / % Red PG, 21st day: adjusted for control and basal; for 21st day PG / 21st day TC / 21st day TG: 21 days 300 mg/kg once daily per oral, predosing; for % Red PG, 21st day / % Red TC (plasma cholesterol), 21st day / % Red TG (plasma triglyceride), 21st day: 21 days 300 mg/kg once daily; for % Red TC (plasma cholesterol), 21st day / % Red TG (plasma triglyceride), 21st day: post 4 hrs fasting, without dosing on the day; for Basal PG / Basal TC / Basal TG: 4 hrs fasted, before treatment, Mean ± SEM; for 4 hrs fasting plasma glucose levels after 21 days treatment (in words): chronic treatment 21 days
Experimental: (§7) Db/db mice were acclimatized to dosing and exposed to tail cut and r.o.p bleeding. Animals were grouped based on plasma glucose, triglyceride and cholesterol values. Acute effect of test compound on plasma glucose levels determined 3 hrs post dosing followed by administration of test compound for 21 days. After 14 days treatment, 4 hrs fasting plasma glucose levels were measured. After 21 days treatment, 4 hrs fasting plasma glucose levels were measured followed by test compound administration and measurement of plasma glucose levels 3 hrs post dosing.
as §1, §2, §3, §4, §5, §6

[5] = system: db/db mice; test: Chronic effect (21 days) on plasma glucose 3 hrs post dosing in db/db mice; format: in vivo; settings: for % Red PG, 21th day 3 hr post dosing / 21th day 3 hr post dosing PG: 21 days 300 mg/kg once daily, then dose; for 21th day 3 hr post dosing PG: Mean ± SEM; for plasma glucose levels 3 hrs post dosing after 21 days treatment followed by administration on day 21 (in words): 300 mg/kg
Experimental: as §7, §1, §2, §3, §5, §6

[6] = system: db/db mice; test: Acute effect of test compounds on plasma glucose levels in db/db mice; format: in vivo; settings: for % Reduction in plasma glucose (acute): 0 hr vs 3 hr post single dose 300 mg/kg per oral; for % Reduction in plasma glucose (acute) / 3 Hr plasma glucose / 0 Hr plasma glucose: Mean ± SEM; for 3 Hr plasma glucose: 3 hrs post single dose 300 mg/kg per oral; for 0 Hr plasma glucose: 4 hrs fasted, before dosing, 300 mg/kg per oral group; for plasma glucose levels 3 hrs post dosing with single dose (in words): acute administration, 300 mg/kg, vs control group
Experimental: as §7, §1, §2
On the day of initiating study animals were fasted for 4 hrs and plasma glucose was measured with Glucometer by tail cut method. Animals were dosed with test compound/vehicle according to their body weight and 3 hrs post dosing plasma glucose levels were measured with Glucometer Immediately animals were provided with measured amount of feed.
Acute effect percent reduction in PG was calculated for each animal using the formula
{(0 hr PG−test hr PG)/0 hr PG}×100
as §6

[7] = Stability of the co-crystal
[8] = water
Experimental: The compounds disclosed herein are finely ground and passed through standard mesh filter and particles with 75-180 micron, and are tested for their solubility and dissolution profile.
The solubility studies for co-crystals and salts were performed according to Higuchi and Connor's method with some variations. Excess amounts (100 mg) of the samples were suspended in 10 mL of water in round bottom flask. Solutions were stirred at 300 rpm using a magnetic stirrer. After 72 h, the suspensions were filtered through a paper filter (Whatman 40)) and filtered aliquots were sufficiently diluted, the absorbance of the samples were measured at 232 nm and the values were normalized for API. […] A standard graph was made by measuring the absorbance of varied concentrations of API in water using a UV spectrophotometer (Nanodrop UV/vis spectrometer) at λmax 232 nm.

[9] = cited from earlier work
[10] = system: HeLa cells; settings: Quercetin pretreatment; cited from earlier work
[11] = P<0.05; cited from earlier work
[12] = biological target: human lens aldose reductase (Homo sapiens, UniProt P15121); settings: cited from earlier work
[13] = biological target: angiotensin-converting enzyme (Homo sapiens, UniProt P12821); settings: cited from earlier work
Chain of angiotensin-converting enzyme (P12821 30-1306, species assumed): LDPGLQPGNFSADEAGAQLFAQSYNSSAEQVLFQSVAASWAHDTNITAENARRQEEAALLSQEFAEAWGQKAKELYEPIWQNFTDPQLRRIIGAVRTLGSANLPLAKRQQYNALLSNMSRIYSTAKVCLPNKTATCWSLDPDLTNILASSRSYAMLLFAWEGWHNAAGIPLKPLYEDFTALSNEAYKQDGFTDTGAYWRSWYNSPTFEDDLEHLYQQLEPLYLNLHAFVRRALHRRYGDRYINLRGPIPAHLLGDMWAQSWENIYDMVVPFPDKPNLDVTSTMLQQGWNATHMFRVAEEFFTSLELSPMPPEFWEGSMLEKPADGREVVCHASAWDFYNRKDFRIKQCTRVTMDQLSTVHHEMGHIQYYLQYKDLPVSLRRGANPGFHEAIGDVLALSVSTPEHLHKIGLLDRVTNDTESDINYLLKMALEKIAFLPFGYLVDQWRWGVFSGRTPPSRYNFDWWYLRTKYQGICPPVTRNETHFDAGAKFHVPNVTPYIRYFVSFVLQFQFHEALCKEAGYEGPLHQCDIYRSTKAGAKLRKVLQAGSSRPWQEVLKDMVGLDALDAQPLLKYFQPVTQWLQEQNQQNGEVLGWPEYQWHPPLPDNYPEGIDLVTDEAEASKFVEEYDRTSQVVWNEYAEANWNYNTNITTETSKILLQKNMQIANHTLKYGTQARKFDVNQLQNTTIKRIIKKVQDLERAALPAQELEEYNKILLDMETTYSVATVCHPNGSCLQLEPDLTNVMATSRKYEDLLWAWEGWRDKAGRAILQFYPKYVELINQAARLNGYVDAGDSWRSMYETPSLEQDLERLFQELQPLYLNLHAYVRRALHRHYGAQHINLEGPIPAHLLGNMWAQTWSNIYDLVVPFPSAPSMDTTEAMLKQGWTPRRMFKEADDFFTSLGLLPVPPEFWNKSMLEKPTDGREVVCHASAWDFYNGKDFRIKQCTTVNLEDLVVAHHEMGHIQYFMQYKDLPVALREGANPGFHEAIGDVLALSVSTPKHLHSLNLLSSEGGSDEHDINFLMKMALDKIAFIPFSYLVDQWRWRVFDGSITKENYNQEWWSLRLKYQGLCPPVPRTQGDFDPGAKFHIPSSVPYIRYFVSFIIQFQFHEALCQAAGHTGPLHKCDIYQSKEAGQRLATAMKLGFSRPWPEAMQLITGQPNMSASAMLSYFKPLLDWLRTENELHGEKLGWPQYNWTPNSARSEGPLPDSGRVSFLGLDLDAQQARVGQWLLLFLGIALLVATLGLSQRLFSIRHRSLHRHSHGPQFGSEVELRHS

SMILES | % Reduction@ in plasma insulin [2] [%] | 21th day insulin [2] [ng/mL] | % Reduction in plasma insulin [2] [%] | Basal insulin [2] [ng/mL] | Final day Body weight [3] [g] | % Increase in body weight [3] [%] | Basal Body weight [3] [g] | 14th day PG [4] [mg/dL] | 14th day TC [4] [mg/dL] | 14th day TG [4] [mg/dL] | % Red PG, 14th day [4] [%] | % Red TC, 14th day [4] [%] | % Red TG, 14th day [4] [%] | 21st day PG [4] [mg/dL] | 21st day TC [4] [mg/dL] | 21st day TG [4] [mg/dL] | % Red PG, 21st day [4] [%] | % Red TC (plasma cholesterol), 21st day [4] [%] | % Red TG (plasma triglyceride), 21st day [4] [%] | Basal PG [4] [mg/dL] | further results
Oc1ccc(C=Cc2cc(O)cc(O)c2)cc1 [resveratrol] |  |  |  |  |  |  |  |  |  |  |  |  |  |  |  |  |  |  |  |  | AMPK phosphorylation [1]: increased
O.O.O=c1c(O)c(-c2ccc(O)c(O)c2)oc2cc(O)cc(O)c12 [ILB-MCO-0904Q, Quercetin dihydrate] | 18 | 2.90 ± 0.33 | 0.29 ± 9.87 | 2.94 ± 0.20 | 44.6 ± 1.3 | 12.2 ± 2.3 | 39.1 ± 1.2 | 476.41 ± 45.57 | 154.43 ± 6.50 | 129.08 ± 5.61 | −4 | −1 | 8 | 432.69 ± 42.38 | 151.25 ± 4.93 | 141.99 ± 8.25 | 0 | 15 | 21 | 402.50 ± 26.82 | effect on plasma glucose levels with acute or chronic administration (in words) ([4]; 300 mg/kg): Did not show significant effect; Basal TC [4]: 156.25 ± 4.53 mg/dL; Basal TG [4]: 138.00 ± 8.04 mg/dL; % Red PG, 21th day 3 hr post dosing [5]: 4%; 21th day 3 hr post dosing PG [5]: 345 ± 41 mg/dL; % Reduction in plasma glucose (acute) [6]: 31 ± 4%; 3 Hr plasma glucose [6]: 293 ± 65 mg/dL; 0 Hr plasma glucose [6]: 398 ± 67 mg/dL
CN(C)C(=N)NC(=N)N.CN(C)C(=N)NC(=N)N.O.O.O=c1c(O)c(-c2ccc(O)c(O)c2)oc2cc(O)cc(O)c12 [ILB-MCO-0905Q, Quercetin dihydrate+Metformin free base co-crystal (1:2)] | 45 | 3.03 ± 0.42 | 30.56 ± 8.10 | 4.55 ± 0.50 | 43.7 ± 1 | 10.1 ± 2.5 | 39.2 ± 0.8 | 417.71 ± 37.85 | 153.68 ± 3.49 | 126.70 ± 6.25 | 8 | 2 | 8 | 368.96 ± 32.95 | 160.25 ± 4.29 | 129.66 ± 5.38 | 14 | 13 | 27 | 399.40 ± 26.54 | stability under accelerated conditions ([7]; accelerated conditions): stable; stability monitored once in seven days for 3 months ([7]; desiccated conditions): stable; hygroscopicity ([7]; normal conditions): hygroscopic; plasma insulin levels after 21 days treatment (in words) ([2]; 21 days, 300 mg/kg, compared to control group): significant reduction; Basal TC [4]: 160.42 ± 3.77 mg/dL; Basal TG [4]: 135.94 ± 6.92 mg/dL; 4 hrs fasting plasma glucose levels after 21 days treatment (in words) ([4]; 300 mg/kg): did not show significant reduction; plasma glucose levels 3 hrs post dosing after 21 days treatment followed by administration on day 21 (in words) [5]: significant lowering; also recorded: significant reduction; % Red PG, 21th day 3 hr post dosing [5]: 38%; 21th day 3 hr post dosing PG [5]: 225 ± 33 mg/dL; % Reduction in plasma glucose (acute) [6]: 48 ± 4 %; 3 Hr plasma glucose [6]: 186 ± 21 mg/dL; 0 Hr plasma glucose [6]: 358 ± 34 mg/dL; plasma glucose levels 3 hrs post dosing with single dose (in words) [6]: Significant lowering; also recorded: significant reduction; solubility compared with the parent molecule Quercetin ([8]; listed as Quercetin dihydrate-Metformin co-crystal): substantially improved; solubility compared with the parent molecule Quercetin ([8]; listed as Quercetin dihydrate-Metformin co-crystals): greater than the parent molecule
N[C@@H](CC(=O)N1CCn2c(nnc2C(F)(F)F)C1)Cc1cc(F)c(F)cc1F [Sitagliptin] |  |  |  |  |  |  |  |  |  |  |  |  |  |  |  |  |  |  |  |  | Bioavailability [9]: 87%; Half Life [9]: 8 to 14 h
O=c1c(O)c(-c2ccc(O)c(O)c2)oc2cc(O)cc(O)c12 [Quercetin] |  |  |  |  |  |  |  |  |  |  |  |  |  |  |  |  |  |  |  |  | cisplatin-induced apoptosis in HeLa cells [10]: sensitizes; mRNA expression of PGC-1alpha and SIRT1, mtDNA and cytochrome C concentration [11]: increased; maximal endurance capacity and voluntary wheel running activity [11]: increase; AMPK phosphorylation [1]: increased; inhibition of human lens aldose reductase [12]: strong inhibitor; hypotensive effect of bradykinin ([13]; pretreatment 88.7 μmol/kg p.o., 45 min, 14.7 μmol/kg i.v., 5 min, bradykinin 10 nmol/kg i.v.): significantly potentiated; hypertensive response to angiotensin I ([13]; same pretreatment, angiotensin I 0.1 nmol/kg iv): significantly reduced
CN(C)C(=N)N=C(N)N [ILB-MCO-0906Q, Metformin hydrochloride] | 28 | 3.82 ± 0.72 | 15.32 ± 7.16 | 4.42 ± 0.63 | 45.1 ± 0.6 | 14.5 ± 0.9 | 38.5 ± 0.5 | 443.33 ± 40.27 | 144.51 ± 4.61 | 114.11 ± 4.76 | 3 | 6 | 17 | 400.80 ± 42.77 | 157.86 ± 8.76 | 127.00 ± 5.65 | 7 | 11 | 28 | 402.43 ± 26.13 | Basal TC [4]: 155.90 ± 5.08 mg/dL; Basal TG [4]: 136.10 ± 5.39 mg/dL; 4 hrs fasting plasma glucose levels after 21 days treatment (in words) ([4]; 300 mg/kg): did not show significant reduction; plasma glucose levels 3 hrs post dosing after 21 days treatment followed by administration on day 21 (in words) ([5]; hydrochloride): significant lowering; also recorded: significant reduction; % Red PG, 21th day 3 hr post dosing [5]: 44%; 21th day 3 hr post dosing PG [5]: 200 ± 31 mg/dL; % Reduction in plasma glucose (acute) [6]: 52 ± 4 %; 3 Hr plasma glucose [6]: 181 ± 25 mg/dL; 0 Hr plasma glucose [6]: 373 ± 43 mg/dL; plasma glucose levels 3 hrs post dosing with single dose (in words) ([6]; hydrochloride): Significant lowering; also recorded: significant reduction
